{"source": "patent US12085575B2", "about": "“Compositions and methods for detecting proteinopathies” (BOARD OF SUPERVISORS OF LOUISIANA STATE UNIVERSITY AND …, priority 2011, dated 2024)", "system": "polyubiquitylated proteins", "experiment": "Camptothecin-induced degradation of polyubiquitylated proteins in A-T cells", "format": "cell-based, human", "conditions": "CPT 10 μm with Bafl 1 nm, 24 hr", "procedure": "To test the generality of this observation, the anticancer drug camptothecin (CPT), a genotoxic agent (37, 48-50), which is known to sensitize A-T cells (37), like UV, was used to induce degradation of polyubiquitylated proteins in A-T cells. In FIG. 8E, A-T cells were treated with camptothecin (CPT; 10 μm) in the presence or absence of Bafl (1 nm) for 24 hr. Ubiquitin conjugated proteins using anti-ubiquitin antibodies were detected as described herein for FIG. 8A. The experiment was repeated three times."}
{"molecule": "CO/C1=C\\C(C)=C\\[C@@H](C)[C@@H](O)[C@@H](C)C/C(C)=C/C=C/[C@H](OC)[C@@H]([C@@H](C)[C@@H](O)[C@H](C)[C@@]2(O)C[C@@H](O)[C@H](C)[C@@H](C(C)C)O2)OC1=O", "note": "[Bafilomycin A1]", "values": [{"measurement": "CPT-mediated degradation of polyubiquitylated proteins", "value": "failed to protect"}]}
